Assay results taken from patent publication US20080226719A1, “Combination of Rosiglitazone and Donepezil for Improvement of Cognitive Function” (priority 2005, published 2008).

Experiments:
Format in all cases: in vivo, human
[1] = test system: Alzheimer's patients; assay: Neuropsychiatric Inventory (NPI), Example 2 study; settings: week 24
Protocol: (§1) Patients received either placebo or one of three dosage levels of extended release rosiglitazone provided once daily (2 mg, 4 mg and 8 mg tablets as described in Example 1). Patients were examined using the cognitive Alzheimer's Disease Assessment Scale (ADAS-cog; for further information see Rosen W G et al. Am. J. Psychiatry. 1984 141:1356-1364) and the Clinician's Interview-Based Impression of Change with caregiver information (CIBIC+; for further information see Knopman D S et al. Neurology 1994 44: 2315-2321); and secondary assessments were performed using: the Disability Assessment for Dementia (DAD, for further information see Gelinas L et al. Am J Occup Ther 1999 53: 471-81) and the Neuropsychiatric Inventory test (NPI, for further information see Cummings et al (1994) Neurology 44, 2308-2314) at the start of the study (baseline) and during the course of the study (after 8, 16 and 24 weeks of treatment).
Similar results were identified using the Neuropsychiatric Inventory (NPI) test (Cummings et al (1994) Neurology 44, 2308-2314). A prospectively defined test for interaction between APOE4 carriage status and NPI scores at week 24 was significant ([…]).

[2] = test system: Alzheimer's patients; assay: Disability Assessment for Dementia (DAD), Example 2 study; settings: week 24
Protocol: as §1
Similar results were identified using the Disability Assessment for Dementia (DAD) test (Gelinas L et al. Am J Occup Ther 1999 53: 471-81). A prospectively defined test for interaction between APOE4 carriage status and DAD scores at week 24 was significant (P=0.006).

[3] = test system: Alzheimer's patients; assay: ADAS-cog in patients with mild to moderate AD, 24 week placebo-controlled study (Example 2); settings: for ADAS-cog Treatment Difference (95% confidence limits) Rosi − Placebo / ADAS-cog model adjusted change from baseline, LSMean (SE): ITT population, LOCF; for ADAS-cog Treatment Difference (95% confidence limits) Rosi − Placebo / ADAS-cog model adjusted change from baseline, LSMean (SE) / ADAS-cog Treatment Difference (90% confidence limits) Rosi − Placebo / ADAS-cog model-adjusted change from baseline, LSMean (SE): 24 weeks; for ADAS-cog Treatment Difference (90% confidence limits) Rosi − Placebo / ADAS-cog model-adjusted change from baseline, LSMean (SE): PGx ITT population
Protocol: (§2) Analysis for the full intent to treat (ITT) population was performed on 511 subjects who were randomly allocated into one of four specific treatment regimes. Genotyping analysis was performed on 63% (323/511) of the ITT population.
(§3) Patient population included Caucasian males and females between 50-85 years of age who had been diagnosed with mild to moderate AD, were not receiving any medications which could adversely prejudice the study (e.g. PPAR-gamma agonists or conventional AD medicaments) or had any other potentially prejudicial ailments (e.g. diabetes or major psychiatric disorders).
as §1
(§4) APOE genotype was determined using the TaqMan PCR-based method of McLeod et al 2001 infra.
(§5) All statistics reflect last observed assessment carried forward (LOCF) measurements.
It should be noted that in the case of ADAS-cog higher scores indicate reduced cognitive function.

[4] = test system: Alzheimer's patients; assay: CIBIC+ in patients with mild to moderate AD, 24 week placebo-controlled study (Example 2); settings: ITT population, LOCF, 24 weeks
Protocol: as §2, §3, §1, §4, §5
Higher CIBIC+ scores indicate a greater level of decline with scores below 4 denoting clinical improvement and scores above 4 denoting clinical decline.

CN(CCOc1ccc(CC2SC(=O)NC2=O)cc1)c1ccccn1 (stereo not drawn) [Rosi, 5-[4-[2-(N-methyl-N-(2-pyridyl)amino)ethoxy]benzyl]thiazolidine-2,4-dione]
NPI scores, pattern of results ([1]; APOE4+ subjects): demonstrated no improvement | NPI scores, pattern of results ([1]; APOE4− subjects): demonstrated improvement on NPI | DAD scores, pattern of results ([2]; APOE4+ subjects): demonstrated no improvement | DAD scores, pattern of results ([2]; APOE4− subjects): demonstrated improvement on DAD | ADAS-cog change from baseline, cognitive function (FIG. 2) ([3]; APOE4+ individuals, 2 mg, 4 mg or 8 mg, after 8 weeks): slight improvement | ADAS-cog change from baseline, cognitive function (FIG. 2) ([3]; APOE4+ individuals, 2 mg, after 16 weeks): a greater decline than the placebo | ADAS-cog change from baseline, cognitive function (FIG. 2) ([3]; APOE4+ individuals, 4 mg and 8 mg, after 16 weeks, versus placebo): the same or better clinical status | ADAS-cog change from baseline, cognitive function (FIG. 2) ([3]; APOE4+ individuals, all three treatment arms, after 24 weeks): finish with a clinical decline | ADAS-cog change from baseline (FIG. 3) ([3]; APOE4 heterozygotes, higher doses (4, 8 mg), course of the study): remained close to the baseline | ADAS-cog change from baseline (FIG. 3) ([3]; APOE4 homozygotes, all treated): experienced a clinical decline | ADAS-cog change from baseline, cognitive function (FIG. 2) ([3]; APOE4− individuals, 2 mg, 4 mg or 8 mg, all time points (8, 16 and 24 weeks)): marked improvement | ADAS-cog Treatment Difference (95% confidence limits) Rosi − Placebo ([3]; 2 mg): 0.25 (−1.19, 1.68) | ADAS-cog model adjusted change from baseline, LSMean (SE) ([3]; 2 mg once daily extended release): −0.2 (0.54) | ADAS-cog Treatment Difference (95% confidence limits) Rosi − Placebo ([3]; 4 mg): −0.46 (−1.90, 0.97) | ADAS-cog model adjusted change from baseline, LSMean (SE) ([3]; 4 mg once daily extended release): −0.9 (0.54) | ADAS-cog Treatment Difference (95% confidence limits) Rosi − Placebo ([3]; 8 mg): −0.27 (−1.70, 1.16) | ADAS-cog model adjusted change from baseline, LSMean (SE) ([3]; 8 mg once daily extended release): −0.7 (0.53) | ADAS-cog Treatment Difference (90% confidence limits) Rosi − Placebo ([3]; 0 APOE4 copies, 2 mg): −2.39 (−4.43, −0.36) | ADAS-cog model-adjusted change from baseline, LSMean (SE) ([3]; 0 APOE4 copies, 2 mg): −1.38 (0.90) | ADAS-cog Treatment Difference (90% confidence limits) Rosi − Placebo ([3]; 0 APOE4 copies, 4 mg): −2.26 (−4.32, −0.20) | ADAS-cog model-adjusted change from baseline, LSMean (SE) ([3]; 0 APOE4 copies, 4 mg): −1.25 (0.90) | ADAS-cog Treatment Difference (90% confidence limits) Rosi − Placebo ([3]; 0 APOE4 copies, 8 mg): −2.86 (−4.98, −0.74) | ADAS-cog model-adjusted change from baseline, LSMean (SE) ([3]; 0 APOE4 copies, 8 mg): −1.85 (0.94) | ADAS-cog Treatment Difference (90% confidence limits) Rosi − Placebo ([3]; 0 APOE4 copies, 8 mg, listed as rosiglitazone): −2.86 | ADAS-cog Treatment Difference (90% confidence limits) Rosi − Placebo ([3]; 1 APOE4 copy, 2 mg): 2.59 (0.10, 5.08) | ADAS-cog model-adjusted change from baseline, LSMean (SE) ([3]; 1 APOE4 copy, 2 mg): 2.02 (1.10) | ADAS-cog Treatment Difference (90% confidence limits) Rosi − Placebo ([3]; 1 APOE4 copy, 4 mg): 0.36 (−2.18, 2.90) | ADAS-cog model-adjusted change from baseline, LSMean (SE) ([3]; 1 APOE4 copy, 4 mg): −0.21 (1.15) | ADAS-cog Treatment Difference (90% confidence limits) Rosi − Placebo ([3]; 1 APOE4 copy, 8 mg): 0.23 (−2.42, 2.87) | ADAS-cog model-adjusted change from baseline, LSMean (SE) ([3]; 1 APOE4 copy, 8 mg): −0.34 (1.25) | ADAS-cog Treatment Difference (90% confidence limits) Rosi − Placebo ([3]; 2 APOE4 copies, 2 mg): 10.26 (3.64, 16.87) | ADAS-cog model-adjusted change from baseline, LSMean (SE) ([3]; 2 APOE4 copies, 2 mg): 5.67 (2.98) | ADAS-cog Treatment Difference (90% confidence limits) Rosi − Placebo ([3]; 2 APOE4 copies, 4 mg): 7.75 (1.79, 13.71) | ADAS-cog model-adjusted change from baseline, LSMean (SE) ([3]; 2 APOE4 copies, 4 mg): 3.16 (2.44) | ADAS-cog Treatment Difference (90% confidence limits) Rosi − Placebo ([3]; 2 APOE4 copies, 8 mg): 6.50 (1.28, 11.71) | ADAS-cog model-adjusted change from baseline, LSMean (SE) ([3]; 2 APOE4 copies, 8 mg): 1.91 (1.73) | CIBIC+ LSMean (SE) ([4]; 2 mg): 3.8 (0.10) | CIBIC+ Treatment Difference (95% confidence limits) Rosi − Placebo ([4]; 2 mg): −0.16 (−0.44, 0.11) | CIBIC+ LSMean (SE) ([4]; 4 mg): 3.8 (0.10)
